According to patent publication US20260028326A1, “COMPOUND BASED ON ISOINDOLINE-SUBSTITUTED GLUTARIMIDE BACKBONE AND USE THEREOF” (GLUETACS THERAPEUTICS (SHANGHAI) CO., LTD., priority 2022, published 2026):

Key:
IKZF3 protein = IKZF3 protein (Homo sapiens (Human), UniProt Q96SW2+Q9UKT9); assay: Western-blot assay of substrate protein degradation in hPBMC, IKZF3; format: cell-based; conditions: hPBMC cells, compound 500 nM, 24 hours, Western blot
Procedure: (§1) After treating the cells with the compounds for 24 hours, the cells were collected and lysed using RIPA protein lysate containing phosphatase inhibitors. The lysate was then placed on ice for 30-60 minutes and centrifuged. The supernatant was aspirated as the extracted total cell protein. The protein concentration of the supernatant was determined using the conventional BCA (Bicinchoninic Acid) assay. The supernatant was then mixed with 4×SDS sample loading buffer, denatured at 95° C. for 5 minutes, and then subjected to SDS-PAGE electrophoresis on a polyacrylamide gel, followed by transfer to a nitrocellulose membrane (NC membrane). The membrane was blocked with blocking buffer at room temperature for 1-2 hours, and then antibody incubation and detection were carried out according to the antibody instructions provided by Cell Signaling Technology.
(§2) Half-Maximal Degradation Concentration value (the drug concentration required for degrading proteins by 50%, abbreviated as DC50) reads method: comparing the gray values of the Western blotting bands for the drug treatment with the gray values of the Western blotting band for the DMSO control, and reading the drug concentration range corresponding to the gray value of the Western blotting bands for the drug treatment which is equal to half of the gray value of the Western blotting band for the DMSO control.
(§3) DC50 value could also be calculated as follows: using software ImageJ to quantify the gray values of the Western blotting bands for the drug treatment, fitting the relationship curve between drug concentrations and gray values, and from the fitted curve, calculating the drug concentration corresponding to half of the gray value of the Western blotting band for the DMSO control.

GSPT1 protein = GSPT1 protein (Homo sapiens (Human), UniProt P15170+Q96SW2); assay: Western-blot assay of substrate protein degradation in hPBMC, GSPT1; format: cell-based; conditions: hPBMC cells, compound 500 nM, 24 hours, Western blot
Chain of GSPT1 protein (P15170 whole entry): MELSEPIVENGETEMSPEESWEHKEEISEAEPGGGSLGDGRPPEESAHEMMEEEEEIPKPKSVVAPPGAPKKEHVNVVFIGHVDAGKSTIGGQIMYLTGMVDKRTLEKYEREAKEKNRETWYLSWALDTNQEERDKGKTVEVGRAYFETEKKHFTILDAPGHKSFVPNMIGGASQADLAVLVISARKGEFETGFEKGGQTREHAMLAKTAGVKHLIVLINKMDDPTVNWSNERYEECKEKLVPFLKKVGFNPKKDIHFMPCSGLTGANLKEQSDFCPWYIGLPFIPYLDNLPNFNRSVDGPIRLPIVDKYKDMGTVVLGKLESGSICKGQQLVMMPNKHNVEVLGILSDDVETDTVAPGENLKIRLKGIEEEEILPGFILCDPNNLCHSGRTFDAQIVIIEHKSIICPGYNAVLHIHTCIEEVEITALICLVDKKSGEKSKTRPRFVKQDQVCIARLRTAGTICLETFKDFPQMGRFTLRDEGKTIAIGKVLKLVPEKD
Chain of GSPT1 protein (Q96SW2 whole entry): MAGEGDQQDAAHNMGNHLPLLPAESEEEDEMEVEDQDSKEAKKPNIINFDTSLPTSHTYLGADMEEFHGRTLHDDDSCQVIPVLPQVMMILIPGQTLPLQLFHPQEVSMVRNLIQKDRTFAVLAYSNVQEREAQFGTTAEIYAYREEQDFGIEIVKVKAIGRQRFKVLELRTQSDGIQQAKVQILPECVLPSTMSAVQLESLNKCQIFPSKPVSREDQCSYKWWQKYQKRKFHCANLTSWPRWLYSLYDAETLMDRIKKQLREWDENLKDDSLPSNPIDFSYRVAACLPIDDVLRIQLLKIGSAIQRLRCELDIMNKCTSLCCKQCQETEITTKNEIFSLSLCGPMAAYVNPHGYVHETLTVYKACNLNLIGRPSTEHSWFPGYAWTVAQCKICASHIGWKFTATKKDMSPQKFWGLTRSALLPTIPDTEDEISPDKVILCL
Chain of GSPT1 protein (Q16531 whole entry partner): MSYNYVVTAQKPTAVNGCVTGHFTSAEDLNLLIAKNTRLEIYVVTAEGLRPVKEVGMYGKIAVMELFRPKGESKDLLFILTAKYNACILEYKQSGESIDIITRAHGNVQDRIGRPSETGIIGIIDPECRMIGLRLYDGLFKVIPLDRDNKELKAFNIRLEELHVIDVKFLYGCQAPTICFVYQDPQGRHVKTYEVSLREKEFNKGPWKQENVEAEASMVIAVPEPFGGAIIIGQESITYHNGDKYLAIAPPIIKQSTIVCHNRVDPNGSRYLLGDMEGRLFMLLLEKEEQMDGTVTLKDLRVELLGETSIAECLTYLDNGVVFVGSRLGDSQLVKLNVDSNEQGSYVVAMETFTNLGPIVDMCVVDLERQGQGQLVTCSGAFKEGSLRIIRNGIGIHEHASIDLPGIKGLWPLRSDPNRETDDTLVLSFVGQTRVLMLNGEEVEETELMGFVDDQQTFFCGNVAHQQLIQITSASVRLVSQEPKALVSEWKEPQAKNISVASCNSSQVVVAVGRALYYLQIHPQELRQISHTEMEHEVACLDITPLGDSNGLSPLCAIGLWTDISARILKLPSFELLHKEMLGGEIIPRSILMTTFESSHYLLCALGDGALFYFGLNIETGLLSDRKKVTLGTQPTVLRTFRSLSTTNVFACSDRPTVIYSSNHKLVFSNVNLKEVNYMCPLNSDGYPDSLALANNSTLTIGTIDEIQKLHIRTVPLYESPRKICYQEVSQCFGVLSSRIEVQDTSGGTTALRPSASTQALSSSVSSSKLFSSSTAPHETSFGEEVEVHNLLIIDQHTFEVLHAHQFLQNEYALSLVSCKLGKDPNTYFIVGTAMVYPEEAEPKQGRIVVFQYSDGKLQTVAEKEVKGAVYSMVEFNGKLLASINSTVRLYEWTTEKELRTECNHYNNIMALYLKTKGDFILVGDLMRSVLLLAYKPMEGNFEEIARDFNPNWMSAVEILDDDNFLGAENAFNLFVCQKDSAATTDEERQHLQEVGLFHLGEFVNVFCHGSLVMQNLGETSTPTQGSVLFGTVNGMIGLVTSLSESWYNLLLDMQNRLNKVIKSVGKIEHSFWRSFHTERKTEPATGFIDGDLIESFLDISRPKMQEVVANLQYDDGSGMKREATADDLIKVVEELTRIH
Procedure: as §1, §2, §3

[1] = biological target: human Cereblon WT GST-tagged protein (Homo sapiens (Human), UniProt Q96SW2); assay: CRBN-binding affinity, HTRF (CEREBLON BINDING kit)
Chain of human Cereblon WT GST-tagged protein (Q96SW2 whole entry): as the sequence (Q96SW2 whole entry) above
In short: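 HTRF competition readout: compounds compete with a thalidomide-Re conjugate for GST-tagged wild-type human CRBN detected via Eu-labelled anti-GST antibody. Inhibition rate derived relative to protein-free blank wells.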

IKZF1 protein = IKZF1 protein (Homo sapiens (Human), UniProt Q13422+Q96SW2); assay: Western-blot assay of substrate protein degradation in hPBMC, IKZF1; format: cell-based; conditions: hPBMC cells, compound 500 nM, 24 hours, Western blot
Chain of IKZF1 protein (Q13422 whole entry): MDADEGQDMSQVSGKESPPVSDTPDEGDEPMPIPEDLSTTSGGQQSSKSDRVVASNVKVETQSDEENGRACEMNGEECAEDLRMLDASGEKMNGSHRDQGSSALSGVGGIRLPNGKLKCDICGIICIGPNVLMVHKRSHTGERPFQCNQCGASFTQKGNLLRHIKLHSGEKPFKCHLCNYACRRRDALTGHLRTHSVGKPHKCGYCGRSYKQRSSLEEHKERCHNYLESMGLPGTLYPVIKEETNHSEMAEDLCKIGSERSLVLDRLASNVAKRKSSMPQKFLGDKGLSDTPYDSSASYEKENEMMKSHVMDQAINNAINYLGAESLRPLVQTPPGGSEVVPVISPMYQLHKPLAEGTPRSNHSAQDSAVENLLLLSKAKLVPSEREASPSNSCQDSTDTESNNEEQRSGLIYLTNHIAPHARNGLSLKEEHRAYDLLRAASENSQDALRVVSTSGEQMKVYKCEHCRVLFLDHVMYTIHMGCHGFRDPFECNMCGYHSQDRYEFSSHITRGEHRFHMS
Chain of IKZF1 protein (Q96SW2 whole entry): as the sequence (Q96SW2 whole entry) above
Chain of IKZF1 protein (Q16531 whole entry partner): as the sequence (Q16531 whole entry partner) above
Procedure: as §1, §2, §3

Chain of IKZF3 protein (Q9UKT9 whole entry): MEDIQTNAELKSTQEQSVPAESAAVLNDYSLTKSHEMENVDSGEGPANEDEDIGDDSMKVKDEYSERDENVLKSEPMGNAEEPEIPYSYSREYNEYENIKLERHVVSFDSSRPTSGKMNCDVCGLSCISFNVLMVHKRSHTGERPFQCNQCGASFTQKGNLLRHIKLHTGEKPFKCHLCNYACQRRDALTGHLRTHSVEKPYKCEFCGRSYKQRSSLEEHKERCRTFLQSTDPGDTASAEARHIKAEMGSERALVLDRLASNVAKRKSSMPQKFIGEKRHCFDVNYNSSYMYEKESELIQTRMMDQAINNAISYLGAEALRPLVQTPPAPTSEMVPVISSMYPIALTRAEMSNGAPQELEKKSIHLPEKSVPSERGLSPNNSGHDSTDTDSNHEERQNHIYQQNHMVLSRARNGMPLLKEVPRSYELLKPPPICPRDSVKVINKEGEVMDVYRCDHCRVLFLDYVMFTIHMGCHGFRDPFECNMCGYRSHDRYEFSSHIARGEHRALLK
Chain of IKZF3 protein (Q96SW2 whole entry): as the sequence (Q96SW2 whole entry) above
Chain of IKZF3 protein (Q16531 whole entry partner): as the sequence (Q16531 whole entry partner) above

IC50 [1] [nM] | Structure (SMILES) | residual substrate protein level, IKZF3 (IKZF3 protein) | residual substrate protein level, GSPT1 (GSPT1 protein) | residual substrate protein level, IKZF1 (IKZF1 protein)
– | CC1(C)CCC(CN2CC3CCC(C2)N3Cc2ccc3c(c2)C(=O)N(C2CCC(=O)NC2=O)C3=O)=C(c2ccc(Cl)cc2)C1 (stereo not shown) [GT-04719, 5-((3-((4′-chloro-5,5-dimethyl-3,4,5,6-tetrahydro-[1,1′-biphenyl]-2-yl)methyl)-3,8-diazabicyclo[3.2.1]octan-8-yl)methyl)-2-(2,6-dioxopiperidin-3-yl)isoindoline-1,3-dione] | B (B represents a residual substrate protein level of >50%) | A (A represents a residual substrate protein level of <50%) | B (B represents a residual substrate protein level of >50%)
– | CC1(C)CCC(CN2CC3CCC2CN3C(=O)c2ccc3c(c2)C(=O)N(C2CCC(=O)NC2=O)C3=O)=C(c2ccc(Cl)cc2)C1 (stereo not shown) [GT-05414, 5-(5-((4′-chloro-5,5-dimethyl-3,4,5,6-tetrahydro-[1,1′-biphenyl]-2-yl)methyl)-2,5-diazabicyclo[2.2.2]octane-2-carbonyl)-2-(2,6-dioxopiperidin-3-yl)isoindoline-1,3-dione] | A (A represents a residual substrate protein level of <50%) | B (B represents a residual substrate protein level of >50%) | B (B represents a residual substrate protein level of >50%)
– | CC1(C)CCC(CN2CC3CCC(C2)N3c2ccc3c(c2)CN(C2CCC(=O)NC2=O)C3=O)=C(c2ccc(Cl)cc2)C1 (stereo not shown) [GT-05430, 3-(5-(3-((4′-chloro-5,5-dimethyl-3,4,5,6-tetrahydro-[1,1′-biphenyl]-2-yl)methyl)-3,8-diazabicyclo[3.2.1]octan-8-yl)-1-oxoisoindolin-2-yl)piperidine-2,6-dione] | B (B represents a residual substrate protein level of >50%) | A (A represents a residual substrate protein level of <50%) | B (B represents a residual substrate protein level of >50%)
– | O=C1CCC(N2C(=O)c3ccc(CN4CCN(CC5=C(c6ccc(F)cc6)CCCC5)CC4)cc3C2=O)C(=O)N1 (stereo not shown) [GT-05464, 2-(2,6-dioxopiperidin-3-yl)-5-((4-((4′-fluoro-3,4,5,6-tetrahydro-[1,1′-biphenyl]-2-yl)methyl)piperazin-1-yl)methyl)isoindoline-1,3-dione] | A (A represents a residual substrate protein level of <50%) | B (B represents a residual substrate protein level of >50%) | B (B represents a residual substrate protein level of >50%)
– | CC1(C)CCC(CN2CC3CC2CN3Cc2ccc3c(c2)C(=O)N(C2CCC(=O)NC2=O)C3=O)=C(c2ccc(Cl)cc2)C1 (stereo not shown) [GT-05533, 5-((5-((4′-chloro-5,5-dimethyl-3,4,5,6-tetrahydro-[1,1′-biphenyl]-2-yl)methyl)-2,5-diazabicyclo[2.2.1]heptan-2-yl)methyl)-2-(2,6-dioxopiperidin-3-yl)isoindoline-1,3-dione] | A (A represents a residual substrate protein level of <50%) | A (A represents a residual substrate protein level of <50%) | A (A represents a residual substrate protein level of <50%)
– | O=C1CCC(N2C(=O)c3ccc(C(=O)N4CCN(Cc5ccc(-c6ccc(Cl)cc6)cc5)CC4)cc3C2=O)C(=O)N1 (stereo not shown) [GT-05600, 5-(4-((4′-chloro-[1,1′-biphenyl]-4-yl)methyl)piperazine-1-carbonyl)-2-(2,6-dioxopiperidin-3-yl)isoindoline-1,3-dione] | B (B represents a residual substrate protein level of >50%) | A (A represents a residual substrate protein level of <50%) | B (B represents a residual substrate protein level of >50%)
– | O=C1CCC(N2C(=O)c3ccc(CN4CCN(Cc5cccc(-c6ccc(Cl)cc6)c5)CC4)cc3C2=O)C(=O)N1 (stereo not shown) [GT-05630, 5-((4-((4′-chloro-[1,1′-biphenyl]-3-yl)methyl)piperazin-1-yl)methyl)-2-(2,6-dioxopiperidin-3-yl)isoindoline-1,3-dione] | A (A represents a residual substrate protein level of <50%) | B (B represents a residual substrate protein level of >50%) | B (B represents a residual substrate protein level of >50%)
– | CC1(C)CCC(CN2CC3(C2)CN(Cc2ccc4c(c2)C(=O)N(C2CCC(=O)NC2=O)C4=O)C3)=C(c2ccc(Cl)cc2)C1 (stereo not shown) [GT-05675, 5-((6-((4′-chloro-5,5-dimethyl-3,4,5,6-tetrahydro-[1,1′-biphenyl]-2-yl)methyl)-2,6-diazaspiro[3.3]heptan-2-yl)methyl)-2-(2,6-dioxopiperidin-3-yl)isoindoline-1,3-dione] | B (B represents a residual substrate protein level of >50%) | B (B represents a residual substrate protein level of >50%) | B (B represents a residual substrate protein level of >50%)
510 | O=C1CCC(N2Cc3cc(N4C5CCC4CN(C(=O)c4ccccc4-c4ccc(Cl)cc4)C5)ccc3C2=O)C(=O)N1 (stereo not shown) [GT-05875, 3-(5-(3-(4′-chloro-[1,1′-biphenyl]-2-carbonyl)-3,8-diazabicyclo[3.2.1]octan-8-yl)-1-oxoisoindolin-2-yl)piperidine-2,6-dione] | – | – | –
120 | O=C1CCC(N2Cc3cc(CCN4CCN(Cc5ccccc5-c5ccc(Cl)cc5)CC4)ccc3C2=O)C(=O)N1 (stereo not shown) [GT-05876, 3-(5-(2-(4-((4′-chloro-[1,1′-biphenyl]-2-yl)methyl)piperazin-1-yl)ethyl)-1-oxoisoindolin-2-yl)piperidine-2,6-dione] | – | – | –
1150 | O=C1CCC(N2Cc3cc(CCCN4CCN(Cc5ccccc5-c5ccc(Cl)cc5)CC4)ccc3C2=O)C(=O)N1 (stereo not shown) [GT-05893, 3-(5-(3-(4-((4′-chloro-[1,1′-biphenyl]-2-yl)methyl)piperazin-1-yl)propyl)-1-oxoisoindolin-2-yl)piperidine-2,6-dione] | – | – | –
– | CC1(C)CCC(CN2CCN(Cc3ccc4c(c3)C(=O)N(C3CCC(=O)NC3=O)C4=O)C(C(F)(F)F)C2)=C(c2ccc(Cl)cc2)C1 (stereo not shown) [GT-06103, 5-((4-((4′-chloro-5,5-dimethyl-3,4,5,6-tetrahydro-[1,1′-biphenyl]-2-yl)methyl)-2-(trifluoromethyl)piperazin-1-yl)methyl)-2-(2,6-dioxopiperidin-3-yl)isoindoline-1,3-dione] | B (B represents a residual substrate protein level of >50%) | A (A represents a residual substrate protein level of <50%) | B (B represents a residual substrate protein level of >50%)

Structure (SMILES) | IC50 [1] [nM] | residual substrate protein level, IKZF3 (IKZF3 protein) | residual substrate protein level, GSPT1 (GSPT1 protein) | residual substrate protein level, IKZF1 (IKZF1 protein)
CC1(C)CCC(CN2CC3CC(C2)N3Cc2ccc3c(c2F)CN(C2CCC(=O)NC2=O)C3=O)=C(c2ccc(Cl)cc2)C1 (stereo not shown) [GT-03493, 3-(5-((3-((4′-chloro-5,5-dimethyl-3,4,5,6-tetrahydro-[1,1′-biphenyl]-2-yl)methyl)-3,6-diazabicyclo[3.1.1]heptan-6-yl)methyl)-4-fluoro-1-oxoisoindolin-2-yl)piperidine-2,6-dione] | 750 | A (A represents a residual substrate protein level of <50%) | A (A represents a residual substrate protein level of <50%) | A (A represents a residual substrate protein level of <50%)
